Measurements taken from ChEMBL document CHEMBL5053549, “Discovery of Potent and Novel Dual PARP/BRD4 Inhibitors for Efficient Treatment of Pancreatic Cancer” (J Med Chem, 2021).
Activity calls are given as the source filed them. The calls are words filed in the database; no cut-off is given here.

Key:
[1] = tested on: SW1990; assay: Inhibition of homologous recombinant repair in human SW1990 cells assessed as reduction in FOXM1 expression at 4 uM after 4 days by Q-PCR analysis; assay type: functional, cell-based; conditions: time 4.0 day
[2] = tested on: Mus musculus; assay: In vivo inhibition of BRD4 expression in human SW1900 cells xenografted in BALB/c mouse assessed as reversal of Olaparib-induced BRD4 accumulation at 15 mg/kg, ip administered for 28 consecutive days in presence of 45 mg/kg Olaparib by Western blot analysis; assay type: functional, organism-based; conditions: time 28.0 day
[3] = tested on: SW1990; assay: Induction of DNA damage in human SW1990 cells assessed as tail DNA at 4 uM incubated for 4 days by comet assay; assay type: functional, cell-based; conditions: time 4.0 day
[4] = tested on: SW1990; assay: Inhibition of homologous recombinant repair in human SW1990 cells assessed as increase in […] expression at 4 uM after 4 days by Q-PCR analysis; assay type: functional, cell-based; conditions: time 4.0 day
[5] = tested on: SW1990; assay: Inhibition of homologous recombinant repair in human SW1990 cells assessed as increase in […] expression at 4 uM after 4 days by Western blot analysis; assay type: functional, cell-based; conditions: time 4.0 day
[6] = tested on: SW1990; assay: Inhibition of homologous recombinant repair in human SW1990 cells assessed as reduction in Olaparib-induced FOXM1 expression at 1 uM after 4 days in presence of Olaparib by Q-PCR analysis; assay type: functional, cell-based; conditions: time 4.0 day
[7] = tested on: SW1990; assay: Inhibition of homologous recombinant repair in human SW1990 cells assessed as reduction in BRCA1 expression at 4 uM after 4 days by Q-PCR analysis; assay type: functional, cell-based; conditions: time 4.0 day
[8] = tested on: SW1990; assay: Effect on cell cycle progression in human SW1990 cells assessed as reduction in Olaparib-induced PLK1 expression at 1 uM after 4 days in presence of Olaparib by Q-PCR analysis; assay type: functional, cell-based; conditions: time 4.0 day
[9] = tested on: Mus musculus; assay: In vivo inhibition of PARP1 expression in human […] cells xenografted in BALB/c mouse assessed as reversal of Olaparib-induced PARP1 accumulation at 15 mg/kg, ip administered for 28 consecutive days in presence of 45 mg/kg Olaparib by Q-PCR analysis; assay type: functional, organism-based; conditions: time 28.0 day
[10] = tested on: SW1990; assay: Induction of apoptosis in human SW1990 cells assessed as late apoptotic cells at 1 uM after 4 days in presence of 3 uM Olaparib by Annexin V-FITC and propidium iodide staining based flow cytometry (reference value: 6.22%); assay type: functional; conditions: time 4 day
[11] = tested on: SW1990; assay: Effect on cell cycle progression in human SW1990 cells assessed as reduction in Olaparib-induced CCND1 expression at 1 uM after 4 days in presence of Olaparib by Q-PCR analysis; assay type: functional, cell-based; conditions: time 4.0 day
[12] = tested on: SW1990; assay: Induction of apoptosis in human SW1990 cells assessed as late apoptotic cells at 4 uM after 4 days by Annexin V-FITC and propidium iodide staining based flow cytometry (reference value: 6.22%); assay type: functional; conditions: time 4 day
[13] = tested on: SW1990; assay: Induction of DNA damage in human SW1990 cells assessed as increase in gammaH2AX at 1 uM incubated for 4 days in presence of Olaparib by immunofluorescence assay; assay type: functional, cell-based; conditions: time 4.0 day
[14] = tested on: Mus musculus; assay: Effect on cell cycle progression in human SW1990 cells xenografted in BALB/c mouse assessed as reduction in PLK1 expression at 45 mg/kg, ip after 4 days by Western blot analysis; assay type: functional, organism-based; conditions: time 4.0 day
[15] = tested on: Mus musculus; assay: In vivo inhibition of PARP1 expression in human […] cells xenografted in BALB/c mouse at 45 mg/kg, ip administered for 28 consecutive days by Q-PCR analysis; assay type: functional, organism-based; conditions: time 28.0 day
[16] = tested on: SW1990; assay: Inhibition of colony formation in human SW1990 cells at 1 uM after 14 days by crystal violet staining based microscopic analysis; assay type: functional, cell-based; conditions: time 14.0 day
[17] = tested on: SW1990; assay: Effect on cell cycle progression in human SW1990 cells assessed as reduction in PLK1 expression at 1 to 2 uM after 4 days by Western blot analysis; assay type: functional, cell-based; conditions: dose 1-2 µM, time 4.0 day
[18] = tested on: SW1990; assay: Induction of cell cycle arrest in human SW1990 cells assessed as accumulation of cells at G0/G1 phase at 1 uM incubated for 4 days by propidium iodide staining based flow cytometry (reference value: 64.79%); assay type: functional; conditions: time 4 day
[19] = tested on: SW1990; assay: Inhibition of homologous recombinant repair in human SW1990 cells assessed as reduction in c-Myc expression at 1 to 2 uM after 4 days by Q-PCR analysis; assay type: functional, cell-based; conditions: dose 1-2 µM, time 4.0 day
[20] = tested on: SW1990; assay: Effect on cell cycle progression in human SW1990 cells assessed as reduction in CDK6 expression at 1 to 2 uM after 4 days by Q-PCR analysis; assay type: functional, cell-based; conditions: dose 1-2 µM, time 4.0 day
[21] = tested on: SW1990; assay: Inhibition of homologous recombinant repair in human SW1990 cells assessed as reduction in FOXM1 expression at 1 to 2 uM after 4 days by Western blot analysis; assay type: functional, cell-based; conditions: dose 1-2 µM, time 4.0 day
[22] = tested on: Mus musculus; assay: Inhibition of homologous recombinant repair in human SW1990 cells xenografted in BALB/c mouse assessed as increase in HEX1M1 expression at 45 mg/kg, ip after 4 days by immunohistochemical analysis; assay type: functional, organism-based; conditions: time 4.0 day
[23] = tested on: SW1990; assay: Induction of apoptosis in human SW1990 cells assessed as necrotic cells at 2 uM after 4 days by Annexin V-FITC and propidium iodide staining based flow cytometry (reference value: 1.89%); assay type: functional; conditions: time 4 day
[24] = tested on: SW1990; assay: Induction of autophagy in human SW1990 cells xenografted in BALB/c mouse assessed as increase in beclin1 expression at 45 mg/kg, ip after 4 days by Q-PCR analysis; assay type: functional, organism-based; conditions: time 4.0 day
[25] = biological target: Bromodomain-containing protein 4 (Homo sapiens, UniProt O60885); assay: Inhibition of recombinant BRD4 BD1 (unknown origin) incubated for 120 mins by TR-FRET assay
[26] = tested on: SW1990; assay: Induction of autophagy in human SW1990 cells assessed as increase in LC3B expression at 1 to 2 uM incubated for 4 days by immunofluorescence assay; assay type: functional, cell-based; conditions: dose 1-2 µM, time 4.0 day
[27] = tested on: Mus musculus; assay: Inhibition of homologous recombinant repair in human SW1990 cells xenografted in BALB/c mouse assessed as reduction in olaparib-induced BRCA1 expression at 15 mg/kg, ip after 4 days by immunohistochemical analysis; assay type: functional, organism-based; conditions: time 4.0 day
[28] = tested on: SW1990; assay: Induction of DNA damage in human SW1990 cells assessed as increase in gammaH2AX at 1 to 2 uM incubated for 4 days by immunofluorescence assay; assay type: functional, cell-based; conditions: dose 1-2 µM, time 4.0 day
[29] = tested on: SW1990; assay: Induction of cell cycle arrest in human SW1990 cells assessed as accumulation of cells at G0/G1 phase at 2 uM incubated for 4 days by propidium iodide staining based flow cytometry (reference value: 64.79%); assay type: functional; conditions: time 4 day
[30] = tested on: SW1990; assay: Induction of autophagy in human SW1990 cells xenografted in BALB/c mouse assessed as decrease in p62 expression at 45 mg/kg, ip after 4 days by Western blot analysis; assay type: functional, organism-based; conditions: time 4.0 day
[31] = tested on: Mus musculus; assay: In vivo inhibition of PARP1 expression in human […] cells xenografted in BALB/c mouse at 45 mg/kg, ip administered for 28 consecutive days by Western blot analysis; assay type: functional, organism-based; conditions: time 28.0 day
[32] = tested on: SW1990; assay: Inhibition of homologous recombinant repair in human SW1990 cells assessed as reduction in c-Myc expression at 1 to 2 uM after 4 days by Western blot analysis; assay type: functional, cell-based; conditions: dose 1-2 µM, time 4.0 day
[33] = tested on: SW1990; assay: Induction of autophagy in human SW1990 cells assessed as increase in pAMPKalpha expression at 1 to 2 uM incubated for 4 days by immunofluorescence assay; assay type: functional, cell-based; conditions: dose 1-2 µM, time 4.0 day
[34] = biological target: Bromodomain-containing protein 2 (Homo sapiens, UniProt P25440); assay: Inhibition of recombinant BRD2 BD2 (unknown origin) incubated for 120 mins by TR-FRET assay
Sequence of Bromodomain-containing protein 2 (P25440 whole entry): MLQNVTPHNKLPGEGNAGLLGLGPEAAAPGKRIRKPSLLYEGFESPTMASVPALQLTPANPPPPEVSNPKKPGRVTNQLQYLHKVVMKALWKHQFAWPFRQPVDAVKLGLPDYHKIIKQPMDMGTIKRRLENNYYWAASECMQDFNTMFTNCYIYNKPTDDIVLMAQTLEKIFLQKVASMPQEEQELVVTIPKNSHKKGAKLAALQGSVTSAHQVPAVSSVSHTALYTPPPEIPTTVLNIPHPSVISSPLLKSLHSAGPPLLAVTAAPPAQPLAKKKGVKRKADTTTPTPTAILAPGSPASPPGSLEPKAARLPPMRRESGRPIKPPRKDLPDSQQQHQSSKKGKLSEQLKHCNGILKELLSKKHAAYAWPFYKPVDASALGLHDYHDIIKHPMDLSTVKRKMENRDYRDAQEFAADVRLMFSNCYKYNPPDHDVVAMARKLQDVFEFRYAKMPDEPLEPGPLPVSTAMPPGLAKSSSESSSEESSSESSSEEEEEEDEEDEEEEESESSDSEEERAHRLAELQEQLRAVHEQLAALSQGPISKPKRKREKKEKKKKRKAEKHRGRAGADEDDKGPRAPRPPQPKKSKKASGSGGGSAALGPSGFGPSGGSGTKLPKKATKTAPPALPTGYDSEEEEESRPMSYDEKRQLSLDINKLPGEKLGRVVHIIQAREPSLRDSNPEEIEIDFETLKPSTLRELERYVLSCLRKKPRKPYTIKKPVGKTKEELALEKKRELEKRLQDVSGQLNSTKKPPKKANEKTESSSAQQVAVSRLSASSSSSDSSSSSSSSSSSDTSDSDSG

Structure (SMILES): Cc1sc2c(c1C)C(c1ccc(Cl)cc1)=N[C@@H](CC(=O)OC(C)(C)C)c1nnc(C)n1-2
- inhibition [1]: Active
- Activity [2]: Active
- Activity [3]: Active
- inhibition [4]: Active
- inhibition [5]: Active
- inhibition [6]: Active
- inhibition [7]: Active
- Activity [8]: Active
- Activity [9]: Active
- Activity [10]: 36.2%
- Activity [11]: Active
- Activity [12]: 25.5%
- Activity [13]: Active

Structure (SMILES): CC[C@@H]1C(=O)N(C)c2cnc(N(C)c3ccc(-c4nc5c(C(N)=O)cccc5[nH]4)cc3OC)nc2N1C1CCCC1
- Activity [14]: Active
- Activity [15]: Active
- inhibition [16]: Active
- Activity [17]: Active
- Activity [18]: 74.76%
- inhibition [19]: Active
- Activity [20]: Active
- inhibition [21]: Active
- inhibition [22]: Active
- Activity [23]: 4.56%
- Activity [24]: Active
- IC50 [25]: 75 nM
- Activity [26]: Active
- inhibition [27]: Active
- Activity [28]: Active
- Activity [29]: 77.56%
- Activity [30]: Active
- Activity [31]: Active
- inhibition [32]: Active
- Activity [33]: Active
- IC50 [34]: 168 nM
